Measurements from patent publication US6656921B1, “Use of zinc hyaluronate against peptic ulcer” (Richter Gedeon Vegyeszeti Gyar RT., priority 1997, dated 2003).
Each block holds one molecule with its values, some of them ahead of it.

What was measured:
Format in all cases: in vivo, rat
[1] = tested on: acidified ethanol induced gastric lesion; experiment: Inhibition of acidified-ethanol induced gastric lesions; conditions: for Inhibition / Lesion length/stomach mm ± S.E.M. / Lesion length/stomach: 30 min before acidified ethanol; for ED50 (dose giving 50% decrease in ulcer index): p.o., 30 min pretreatment
Method: Female RG-Wistar rats weighing between 120-150 g were used. Before experiments animals were fasted for 24 hours but received water ad libitum.
Experiments were carried out according to the technique similar to that described by A. Robert [Gastroenterology 77, […] (1979)].
Acidified ethanol (mixture of 50 ml of abs. ethanol and 1 ml of concentrated HCI) was used as strong irritants. Dose of acidified ethanol was 0.5 ml/100 g body weight with intragastric administration. Test compounds were given orally 30 minutes before the acidified ethanol challenge. When the duration of action of test compound was studied test material was administered 60 or 120 minutes earlier to the irritating effect induced by acidified-ethanol effect. One hour after the acidified ethanol treatment rats were sacrificed by cervical dislocation. Stomachs were removed and opened along the greater curvature and mildly washed down. The longitudinal hemorrhagic lesions were assayed by length.
ED50 value was defined as the dose that gave a 50% decrease in ulcer index.

[2] = tested on: indomethacin induced gastric lesion; experiment: Inhibition of indomethacin induced gastric lesion
Method: 2. Inhibition of Indomethacin Induced Gastric Lesion Female RG Wistar rats weighing between 120-150 g were used. Before the experiments animals were fasted for 24 hours but received water ad libitum. Test compounds were given orally, 30 minutes later the animals were treated subcutaneously with indomethacin at a dose of 40 mg/kg. Four hours after the irritating indomethacin administration the animals were killed by cervical dislocation. The stomachs were removed, opened along the greater curvature and the hemorrhagic lesions were counted on the glandular stomach.
ED50 value represents the dose which protects the stomach by 50 % from the damaging effect of indomethacin.

[3] = tested on: acetic acid induced chronic gastric ulcer; experiment: Inhibition of acetic acid induced chronic gastric ulcer; conditions: for Ulcerated area mm^2 ± S.E.M.: 1.0 mg/kg p.o. once a day, day 5 to 14 after surgery; for Effect on healing of acetic acid induced chronic ulcer (in words): rat, in vivo
Method: Female, RG Wistar rats weighing between 120-150 g were used. Before the surgery animals were deprived of food for 24 hours but received water ad libitum. The chronic gastric ulcer was induced by the injection of 25 μl/animal of 20% (v/v) acetic acid into the gastric wall under light ether anaesthesia according to the method similar to that described by Takagi et al. (1969). The oral treatment with the test compounds was started five days after the surgery and continued in a once-a-day regimen up to the 14th day. The animals were killed on the 15th day and their stomachs were dissected. The severity of ulceration was evaluated by the measurement of the diameter of the ulcers and the area affected was calculated. The healing effect was expressed as differences in percentage between the control and test group values.

[4] = tested on: gastrointestinal motility; experiment: Gastrointestinal motility in the charcoal propulsion test; conditions: 100 mg/kg p.o.; for Propulsion of charcoal suspension mm ± S.E.M.: 30 min before charcoal, 60 min after charcoal
Method: Experiments were performed on female, RG-Wistar rats weighing 120-140 g, which were fasted for 24 hours but received water ad libitum.
The experimental procedure was carried out according to the technique similar to that described of P. A. Janssen and A. J. Jageneau [J. Pharm. Pharmacel. 9, 381 (1957)].
Test compounds were given orally at a dose of 100 mg/kg. Control animals received physiological saline solution instead of test compounds. 30 minutes later, the 5% (w/v) charcoal suspension was administered orally at a volume of 0.5 ml/animal. 60 minutes after the charcoal treatment the animals were sacrificed by cervical dislocation. The intestine from pylorus to cecum was removed, its lengths measured along with the distance traversed by the charcoal meal.
Motility was expressed as the ratio of length of charcoal suspension to the length of the whole intestine.

[5] = tested on: acidified ethanol induced gastric damage; experiment: Effect of L-NAME (endogenous NO) on protection against acidified-ethanol induced gastric damage
Method: To study the mechanism of action of the compound to be tested, the involvement of endogenous NO in the development of acidified-ethanol induced gastric damage was also studied by intraperitoneal administration of L-N^G-nitroarginine methyl ester (L-NAME). L-NAME at a dose of 25 mg/kg was injected 15 minutes before the test compound. In subsequent experiments the test compound (p.o.), L-NAME (25 mg/kg i.p.), L-arginine (400 mg/kg i.v.) were administered 30, 45 or 60 minutes before oral administration of acidified-ethanol.
The connection between the cytoprotective effect of zinc hyaluronate and endogenic NO was studied by using an inhibitor of the nitrogen(II) oxide biosynthesis namely, N^G-nitro-L-arginine methyl ester (L-NAME). Considering that zinc hyaluronate(II) and zinc hyaluronate(M) had shown the same activity in acidified ethanol test, the latter was the only one tested in this experiment.

[6] = tested on: stress-induced gastric lesion; experiment: Inhibition of stress (cold-restraint) induced gastric lesions
Method: Female RG Wistar rats weighing between 120-150 g were used. Before the experiments animals were fasted for 24 hours but received water ad libitum. Experiments were carried out according to the technique similar to that described by Senay et al., (1967). [Proc. Soc. Exp. Biol. Med.124,1221, (1967)].
Test compounds were given orally. 30 minutes later the animals were immobilized in plastic restraint boxes then placed into a refrigerator at 4° C.-8° C. temperature. Four hours later the animals were removed from both the refrigerator and the restraint boxes and one hour later they were sacrificed by cervical dislocation. The stomachs were removed, opened along the greater curvature and hemorrhagic lesions were scored by a zero to 3 scale: stomachs free from any damage were given a score of 0, stomachs with only a few hemorrhagic lesion were given a score of 1, stomachs with more lesion numbers than 10 were given a score of 2, and stomachs with a lot of lesions were characterized with a score of 3.
The ED50 were defined as the dose needed to decrease the score of gastric lesions by 50%.

[7] = 1.0 mg/kg p.o., 30 min before indomethacin
[8] = 1.0 mg/kg p.o., 30 min before indomethacin 40 mg/kg s.c.
[9] = 10.0 mg/kg p.o., 30 min before indomethacin
[10] = 10.0 mg/kg p.o., 30 min before indomethacin 40 mg/kg s.c.
[11] = 100 mg/kg p.o., 30 min before indomethacin
[12] = 100 mg/kg p.o., 30 min before indomethacin 40 mg/kg s.c.
[13] = listed as Zink-hyaluronate (III)
[14] = L-NAME + zinc chloride, 25 + 25 mg/kg
[15] = Vehicle + zinc chloride, 0 + 25 mg/kg
[16] = 25 mg/kg p.o., 30 min before indomethacin

Propulsion of charcoal suspension mm ± S.E.M. [4, 13]: 68 ± 2.5 mm
Ratio of charcoal suspension to the whole intestinal part [4, 13]: 0.89 ± 0.03
Molecule: zinc hyaluronate [Zinc hyaluronate (III)]
Inhibition ([1]; 10 mg/kg p.o.): 0%
Lesion length/stomach mm ± S.E.M. ([1]; 10 mg/kg p.o.): 98.4 ± 12.7 mm
Inhibition ([1]; 25 mg/kg p.o.): 37.0%
Lesion length/stomach mm ± S.E.M. ([1]; 25 mg/kg p.o.): 43.7 ± 7.7 mm
Inhibition ([1]; 50 mg/kg p.o.): 78.5%
Lesion length/stomach mm ± S.E.M. ([1]; 50 mg/kg p.o.): 14.9 ± 4.5 mm
Inhibition ([1]; 100 mg/kg p.o.): 85.7%
Lesion length/stomach mm ± S.E.M. ([1]; 100 mg/kg p.o.): 9.9 ± 3.5 mm
ED50 (dose giving 50% decrease in ulcer index) [1]: 33.2 mg/kg
Inhibition [2, 7]: 7.6%
Lesion number/stomach ± S.E.M. [2, 8]: 17.0 ± 4.5
Inhibition [2, 9]: 57.6%
Lesion number/stomach ± S.E.M. [2, 10]: 7.9 ± 2.5
Inhibition [2, 11]: 83.7%
Lesion number/stomach ± S.E.M. [2, 12]: 3.0 ± 1.4
Ulcerated area mm^2 ± S.E.M. [3]: 6.8 ± 0.8 mm^2
Effect on healing of acetic acid induced chronic ulcer (in words) [3]: Neither zinc hyaluronate(I), nor zinc hyaluronate(III) had any effect

Molecule: [Cl-].[Cl-].[Zn+2] [Zinc chloride, zinc chloride, reference compound]
Inhibition ([1]; 3.2 mg/kg p.o.): 43.7%
Lesion length/stomach mm ± S.E.M. ([1]; 3.2 mg/kg p.o.): 29.0 ± 4.0 mm
Inhibition ([1]; 6.4 mg/kg p.o.): 52.0%
Lesion length/stomach mm ± S.E.M. ([1]; 6.4 mg/kg p.o.): 24.7 ± 7.7 mm
Inhibition ([1]; 12.8 mg/kg p.o.): 87.0%
Lesion length/stomach mm ± S.E.M. ([1]; 12.8 mg/kg p.o.): 6.7 ± 1.6 mm
Effect of L-NAME pretreatment on the gastroprotective activity (in words) ([5]; L-NAME 25 mg/kg): not influenced
Inhibition (compared with the vehicle + vehicle group) [5, 14]: 73.2%
Lesion length/stomach mm ± S.E.M. [5, 14]: 19.9 ± 5.5 mm
Inhibition (compared with the vehicle + vehicle group) [5, 15]: 89.2%
Lesion length/stomach mm ± S.E.M. [5, 15]: 8.0 ± 2.6 mm
Inhibition [2, 16]: 0%
Lesion number/stomach ± S.E.M. [2, 16]: 15.1 ± 3.7
Protection of gastric mucosa against indomethacin (in words) ([2]; rat, in vivo): do not provide any effect
Lesion score/stomach ± S.E.M. ([6]; 25 mg/kg p.o., 30 min before cold-restraint stress, score 0-3): 0.6 ± 0.2
Inhibition ([6]; 25 mg/kg p.o., 30 min before stress): 40.0%
Protection against cold-restraint induced gastric damage (in words) ([6]; rat, in vivo): only slight protective effects

Effect on the intestinal motility (in words) [4]: absence of change in activity
Propulsion of charcoal suspension mm ± S.E.M. ([4]; listed as Zink-hyaluronate (I)): 718 ± 5.6 mm
Ratio of charcoal suspension to the whole intestinal part ([4]; listed as Zink-hyaluronate (I)): 0.79 ± 0.07
Molecule: zinc hyaluronate [Zinc hyaluronate (I)]
Inhibition ([1]; 1 mg/kg p.o.): 0%
Lesion length/stomach ([1]; 1 mg/kg p.o.): 95.3 ± 14.8
Inhibition ([1]; 10 mg/kg p.o.): 35.0%
Lesion length/stomach ([1]; 10 mg/kg p.o.): 53.6 ± 7.3
Inhibition ([1]; 50 mg/kg p.o.): 66.7%
Lesion length/stomach ([1]; 50 mg/kg p.o.): 27.4 ± 7.6
Inhibition ([1]; 100 mg/kg p.o.): 93.4%
Lesion length/stomach ([1]; 100 mg/kg p.o.): 5.4 ± 2.0
ED50 (dose giving 50% decrease in ulcer index) [1]: 15.9 mg/kg
Inhibition [2, 7]: 43.4%
Lesion number/stomach ± S.E.M. [2, 8]: 4.7 ± 2.1
Inhibition [2, 9]: 55.4%
Lesion number/stomach ± S.E.M. [2, 10]: 3.7 ± 1.9
Inhibition [2, 11]: 90.4%
Lesion number/stomach ± S.E.M. [2, 12]: 0.8 ± 0.4
Ulcerated area mm^2 ± S.E.M. [3]: 10.0 ± 2.3 mm^2
Effect on healing of acetic acid induced chronic ulcer (in words) [3]: Neither zinc hyaluronate(I), nor zinc hyaluronate(III) had any effect
